Experimental data taken from patent publication US20230382925A1, “MODULATORS OF CYSTIC FIBROSIS TRANSMEMBRANE CONDUCTANCE REGULATOR” (VERTEX PHARMACEUTICALS INCORPORATED, priority 2020, published 2023).
“And” between values parts separate entries of the source, which are not always exact repeats. Equal values may be shown once. Read-outs that look alike come from different tables or passages of the source.

What was measured:
[1] = amide bond, 13-membered ring, DMF
[2] = amide bond, 13-membered ring, DMF; remark: listed apart in the source
CFTR [3] = biological target: T1, CFTR (Homo sapiens, UniProt P13569); assay: Membrane Potential Dye, Enteroid Assay A; type: cell-based; details: for EC50: read-out: Ent. A EC50
Outline: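 Primary human intestinal enteroid cells exposed to compound for 18–24 hours at 37 °C, then loaded 25 min with methyl oxonol membrane potential dye plus CaCC inhibitors. Chloride transport triggered in chloride-free buffer with 10 μM forskolin, 100 μM IBMX and 300 nM Compound III, fluorescence read 15 min; % Activity relative to a triple-combination corrector/potentiator control.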

CFTR [4] = biological target: T1, CFTR; assay: Membrane Potential Dye, Enteroid Assay B; type: cell-based; details: for EC50: read-out: Ent. B EC50
Outline: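 Human intestinal enteroid cells exposed to compound 18-24 h at 37 °C, then loaded with methyl oxonol membrane-potential dye plus CaCC blockers. Chloride transport triggered in chloride-free buffer with 10 μM forskolin, 100 μM IBMX, 300 nM Compound III; fluorescence read 15 min, expressed as % of triple-corrector/potentiator combination control.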

T1 sequence (P13569 with tags, fused parts or gaps DEL508-508): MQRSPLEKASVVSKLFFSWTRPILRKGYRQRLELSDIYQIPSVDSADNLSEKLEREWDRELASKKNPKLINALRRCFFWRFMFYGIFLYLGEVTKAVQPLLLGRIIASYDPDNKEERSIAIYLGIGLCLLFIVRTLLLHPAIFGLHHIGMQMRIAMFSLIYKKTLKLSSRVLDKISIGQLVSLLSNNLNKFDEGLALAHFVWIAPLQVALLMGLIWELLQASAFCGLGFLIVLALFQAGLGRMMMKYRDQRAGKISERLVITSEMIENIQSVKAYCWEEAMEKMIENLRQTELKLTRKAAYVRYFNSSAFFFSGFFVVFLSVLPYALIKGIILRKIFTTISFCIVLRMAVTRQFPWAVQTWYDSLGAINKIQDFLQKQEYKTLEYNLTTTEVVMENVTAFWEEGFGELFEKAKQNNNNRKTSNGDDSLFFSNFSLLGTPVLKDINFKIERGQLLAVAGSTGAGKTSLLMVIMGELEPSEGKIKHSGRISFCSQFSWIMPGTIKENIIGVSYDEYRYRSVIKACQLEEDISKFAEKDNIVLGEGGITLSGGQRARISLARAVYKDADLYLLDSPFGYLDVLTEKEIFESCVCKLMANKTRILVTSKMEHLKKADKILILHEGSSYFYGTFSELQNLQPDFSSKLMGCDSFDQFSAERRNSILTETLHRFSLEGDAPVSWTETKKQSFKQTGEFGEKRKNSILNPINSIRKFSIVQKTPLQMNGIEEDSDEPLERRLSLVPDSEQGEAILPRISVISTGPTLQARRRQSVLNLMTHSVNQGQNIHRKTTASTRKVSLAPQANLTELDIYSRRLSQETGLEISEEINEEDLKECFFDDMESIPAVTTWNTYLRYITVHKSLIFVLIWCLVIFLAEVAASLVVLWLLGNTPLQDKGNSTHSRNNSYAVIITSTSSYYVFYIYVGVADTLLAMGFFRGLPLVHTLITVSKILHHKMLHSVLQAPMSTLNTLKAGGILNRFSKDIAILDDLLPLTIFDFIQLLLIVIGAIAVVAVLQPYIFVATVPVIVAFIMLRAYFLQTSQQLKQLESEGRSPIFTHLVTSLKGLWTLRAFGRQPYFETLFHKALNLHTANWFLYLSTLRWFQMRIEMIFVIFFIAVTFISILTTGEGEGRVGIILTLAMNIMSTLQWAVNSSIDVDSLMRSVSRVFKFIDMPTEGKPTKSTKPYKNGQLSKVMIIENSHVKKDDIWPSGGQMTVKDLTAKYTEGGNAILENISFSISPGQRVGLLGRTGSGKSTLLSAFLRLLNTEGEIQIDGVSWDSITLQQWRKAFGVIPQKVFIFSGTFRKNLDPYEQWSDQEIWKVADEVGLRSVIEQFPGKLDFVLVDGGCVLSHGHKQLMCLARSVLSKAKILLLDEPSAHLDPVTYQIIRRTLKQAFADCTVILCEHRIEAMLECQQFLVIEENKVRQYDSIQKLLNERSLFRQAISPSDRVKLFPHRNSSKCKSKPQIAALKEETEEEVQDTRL

For `CC(C)C[C@@H]1COc2cc(Cl)nc(n2)NS(=O)(=O)c2cccc(c2)C(=O)N1C1CC2(CC2)C1`, which ring closure, isolated yield ([1]; from CC(C)C[C@H](COc1cc(Cl)nc(NS(=O)(=O)c2cccc(C(=O)O)c2)n1)NC1CC2(CC2)C1, HATU/DIEA, 16.5 mM, 17.0 h) is on record?
Its ring closure, isolated yield is 58%.

Which ring closure, isolated yield ([1]; from CC(C)C[C@H](COc1cc(Cl)nc(NS(=O)(=O)c2cccc(C(=O)O)c2)n1)NC1CC2(CCN(C(=O)OC(C)(C)C)CC2)C1, HATU/TEA, 154.9 mM, 25.0 °C, 16.0 h) does the source give for `CC(C)C[C@@H]1COc2cc(Cl)nc(n2)NS(=O)(=O)c2cccc(c2)C(=O)N1C1CC2(CCN(C(=O)OC(C)(C)C)CC2)C1` here?
Its ring closure, isolated yield is 41%.

With `COC(=O)C1CC(N2C(=O)c3cccc(c3)S(=O)(=O)Nc3nc(cc(-c4c(C)cccc4C)n3)OC[C@H]2CC(C)(C)C)C1` (stereo partly shown) as the compound, how does the ring closure, isolated yield ([1]; from COC(=O)C1CC(N[C@@H](COc2cc(-c3c(C)cccc3C)nc(NS(=O)(=O)c3cccc(C(=O)O)c3)n2)CC(C)(C)C)C1, COMU/DIEA, 25.2 mM, 25.0 °C, 21.0 h) read?
Its ring closure, isolated yield is 25% and 34%.

With `COC(=O)C1CC2(C1)CC(N1C(=O)c3cccc(c3)S(=O)(=O)Nc3nc(cc(-c4c(C)cccc4C)n3)OC[C@H]1CC(C)(C)C)C2` (stereo partly shown) as the compound, how does the ring closure, isolated yield ([1]; from COC(=O)C1CC2(CC(N[C@@H](COc3cc(-c4c(C)cccc4C)nc(NS(=O)(=O)c4cccc(C(=O)O)c4)n3)CC(C)(C)C)C2)C1, COMU/DIEA, 16.0 h, 2 steps) read?
Its ring closure, isolated yield is 51%.

Which ring closure, isolated yield ([1]; HATU/DIEA, 25.0 °C, 2 steps) does the source give for `COC(=O)C1CC2(C1)CC(N1C(=O)c3cccc(c3)S(=O)(=O)Nc3nc(cc(-c4c(C)cccc4C)n3)OC[C@H]1CCC(C)C)C2` (stereo partly shown) here?
Its ring closure, isolated yield is 20%.

Which ring closure, isolated yield ([1]; from COC(=O)CC1CC(N[C@@H](COc2cc(-c3c(C)cccc3C)nc(NS(=O)(=O)c3cccc(C(=O)O)c3)n2)CC(C)(C)C)C1, COMU/DIEA, 47.0 mM, 18.0 h) does the source give for `COC(=O)CC1CC(N2C(=O)c3cccc(c3)S(=O)(=O)Nc3nc(cc(-c4c(C)cccc4C)n3)OC[C@H]2CC(C)(C)C)C1` (stereo partly shown) here?
The ring closure, isolated yield was 79%.

With `Cc1cccc(C)c1-c1cc2nc(n1)NS(=O)(=O)c1cccc(c1)C(=O)N(C1CC(NC(=O)OC(C)(C)C)C1)[C@H](CC1(C(F)(F)F)CC1)CO2` (stereo partly shown) as the compound, how does the ring closure, isolated yield ([1]; from Cc1cccc(C)c1-c1cc(OC[C@@H](CC2(C(F)(F)F)CC2)NC2CC(NC(=O)OC(C)(C)C)C2)nc(NS(=O)(=O)c2cccc(C(=O)O)c2)n1, HATU/DIPEA, 28.6 mM, 16.0 h) read?
Its ring closure, isolated yield is 61%.

With `Cc1cccc(C)c1-c1cc2nc(n1)NS(=O)(=O)c1cccc(c1)C(=O)N(C1CC3(C1)CC1(C3)OCCO1)[C@H](CC(C)(C)C)CO2` as the compound, how does the ring closure, isolated yield ([1]; from Cc1cccc(C)c1-c1cc(OC[C@@H](CC(C)(C)C)NC2CC3(C2)CC2(C3)OCCO2)nc(NS(=O)(=O)c2cccc(C(=O)O)c2)n1, COMU/DIEA, 71.6 mM, 16.0 h) read?
Its ring closure, isolated yield is 76%.

Which ring closure, isolated yield ([1]; from Cc1cccc(C)c1-c1cc(OC[C@@H](CC2(C(F)(F)F)CC2)NC2CC3(C2)CN(C(=O)OC(C)(C)C)C3)nc(NS(=O)(=O)c2cccc(C(=O)O)c2)n1, HATU/TEA, 35.1 mM, 22.0 h) does the source give for `Cc1cccc(C)c1-c1cc2nc(n1)NS(=O)(=O)c1cccc(c1)C(=O)N(C1CC3(C1)CN(C(=O)OC(C)(C)C)C3)[C@H](CC1(C(F)(F)F)CC1)CO2` here?
The ring closure, isolated yield was 49%.

With `Cc1cccc(C)c1-c1cc2nc(n1)NS(=O)(=O)c1cccc(c1)C(=O)N(C1CC3(CC(NC(=O)OC(C)(C)C)C3)C1)[C@H](CC1(C(F)(F)F)CC1)CO2` (stereo partly shown) as the compound, how does the ring closure, isolated yield ([1]; from Cc1cccc(C)c1-c1cc(OC[C@@H](CC2(C(F)(F)F)CC2)NC2CC3(CC(NC(=O)OC(C)(C)C)C3)C2)nc(NS(=O)(=O)c2cccc(C(=O)O)c2)n1, HATU/DIEA, 99.2 mM, 18.0 h) read?
The ring closure, isolated yield was 74%.

For `Cc1cccc(C)c1-c1cc2nc(n1)NS(=O)(=O)c1cccc(c1)C(=O)N(C1CC3(COC(=O)N3)C1)[C@H](CC(C)(C)C)CO2` (stereo partly shown), which ring closure, isolated yield ([1]; from Cc1cccc(C)c1-c1cc(OC[C@@H](CC(C)(C)C)NC2CC3(COC(=O)N3)C2)nc(NS(=O)(=O)c2cccc(C(=O)O)c2)n1, COMU/DIEA, 13.0 mM, 25.0 °C, 3.0 h, 2 steps) is on record?
Its ring closure, isolated yield is 8% and 3%.

With `Cc1cccc(C)c1-c1cc2nc(n1)NS(=O)(=O)c1cccc(c1)C(=O)N(C1[C@@H]3C[C@H]1CN(C(=O)OC(C)(C)C)C3)[C@H](CC(C)(C)C)CO2` (stereo partly shown) as the compound, how does the ring closure, isolated yield ([1]; from Cc1cccc(C)c1-c1cc(OC[C@@H](CC(C)(C)C)NC2C3CC2CN(C(=O)OC(C)(C)C)C3)nc(NS(=O)(=O)c2cccc(C(=O)O)c2)n1, COMU/DIEA, 8.4 mM, 25.0 °C, 24.0 h) read?
The ring closure, isolated yield was 17%.

With `Cc1cccc(C)c1-c1cc2nc(n1)NS(=O)(=O)c1cccc(c1)C(=O)N(C1CC3(CCN(CC(F)(F)F)CC3)C1)[C@H](CC(C)C)CO2` [Compound 18, (11R)-6-(2,6-dimethylphenyl)-11-isobutyl-2,2-dioxo-12-[7-(2,2,2-trifluoroethyl)-7-azaspiro[3.5]nonan-2-yl]-9-oxa-2λ^6-thia-3,5,12,19-tetrazatricyclo[12.3.1.14,8]nonadeca-1(18),4(19),5,7,14,16-hexaen-13-one] as the compound, how does the ring closure, yield after HPLC ([2]; from Cc1cccc(C)c1-c1cc(OC[C@@H](CC(C)C)NC2CC3(CCN(CC(F)(F)F)CC3)C2)nc(NS(=O)(=O)c2cccc(C(=O)O)c2)n1, HATU/DIEA, 25.0 °C, 2.0 h, 2 steps) read?
The ring closure, yield after HPLC was 17%.

What about the “Ent. A Max Activity (%)” value (CFTR [3]) of the same compound?
Its value is “+++ (+++ is >60%)”.

And the EC50 (CFTR [3])?
The EC50 was < 1000 nM.

And the “Ent. B Max Activity (%)” value (CFTR [4])?
The value was “+++ (+++ is >60%)”.

What about the EC50 (CFTR [4]) of the same compound?
Its EC50 is < 1000 nM.

With `Cc1cccc(C)c1-c1cc2nc(n1)NS(=O)(=O)c1cccc(c1)C(=O)N(C1CC3(CC3)C1)[C@H](C)CO2` [Compound 126, (11R)-6-(2,6-dimethylphenyl)-11-methyl-12-{spiro[2.3]hexan-5-yl}-9-oxa-2λ^6-thia-3,5,12,19-tetraazatricyclo[12.3.1.14,8]nonadeca-1(17),4(19),5,7,14(18),15-hexaene-2,2,13-trione] as the compound, how does the ring closure, yield after HPLC ([2]; from Cc1cccc(C)c1-c1cc(OC[C@@H](C)NC2CC3(CC3)C2)nc(NS(=O)(=O)c2cccc(C(=O)O)c2)n1, HATU/TEA, 20.9 mM, 96.0 h) read?
Its ring closure, yield after HPLC is 47%.

What about the “Ent. A Max Activity (%)” value (CFTR [3]) of the same compound?
The value was “++ (++ is 30-60%)”.

What about the EC50 (CFTR [3]) of the same compound?
The EC50 was 1000 to 3000 nM.

With `Cc1cccc(C)c1-c1cc2nc(n1)NS(=O)(=O)c1cccc(c1)C(=O)N(C1CC3(CC3)C1)[C@H](CC(C)(C)C)CO2` [Compound 182, (11R)-6-(2,6-Dimethylphenyl)-11-(2,2-dimethylpropyl)-2,2-dioxo-12-spiro[2.3]hexan-5-yl-9-oxa-2λ^6-thia-3,5,12,19-tetrazatricyclo[12.3.1.14,8]nonadeca-1(18),4(19),5,7,14,16-hexaen-13-one] as the compound, how does the ring closure, yield after HPLC ([2]; from Cc1cccc(C)c1-c1cc(OC[C@@H](CC(C)(C)C)NC2CC3(CC3)C2)nc(NS(=O)(=O)c2cccc(C(=O)O)c2)n1, HATU/DIEA, 26.5 mM, 6.0 h) read?
Its ring closure, yield after HPLC is 54%.

What about the “Ent. A Max Activity (%)” value (CFTR [3]) of the same compound?
The value was “+++ (+++ is >60%)”.

What about the EC50 (CFTR [3]) of the same compound?
The EC50 was < 1000 nM.

What about the “Ent. B Max Activity (%)” value (CFTR [4]) of the same compound?
Its value is “+++ (+++ is >60%)”.

And the EC50 (CFTR [4])?
The EC50 was < 1000 nM.
